Experiments:
HUVEC cells [1] = test: HUVEC cytotoxicity elicited by drug formulations (LDH release); details: vehicle alone: 0.02% DMSO, 0.016% Cremophor EL, 0.05% HPβCD; 42 h, growth factor depleted media, 37 °C; n = 4
Method: HUVEC LDH release with (A) 0.02% DMSO (B) 0.016% Cremophor EL and (C) 0.05% HPβCD after 42 h in growth factor depleted media at 37 °C. Data are presented as mean ± SEM (n = 4).
Dimethylsulfoxide (DMSO) is the most widely utilized solvent, and is used extensively in biological assays for attaining aqueous solubility for non-polar drug molecules. To determine the potential cytotoxic effects associated with DMSO, Cremophor EL, and HPβCD in a HUVEC system, we report three conditions that were chosen after considering the minimum required vehicle concentration for PsA (drug) solubility.
All cell culture experiments were performed using HUVEC cells initially seeded at 3 × 10^5 cells/75 cm^2 flask and fed every 1–2 days with fresh EGM-2 complete culture media (EBM-2 basal media with hVEGF, hFGF, hIGF, hEGF, hydrocortisone, ascorbic acid, heparin, 2% FBS, and GA-1000). For each experiment cells were split at 80% confluence. All experiments were conducted between generations 4 and 10. Starvation media consisted of EBM-2 basal media with 0.1% FBS, and GA-1000 (antibiotic mixture). Growth factor depleted media consisted of EBM-2 basal media with 2% FBS, hydrocortisone, ascorbic acid, heparin, and GA-1000.

[2] = stability of the cyclodextrin inclusion complex by HPLC and NMR; type: physicochemical; details: PsA inclusion complex in HPβCD; observed by HPLC and NMR
Method: Hydroxypropyl-beta-cyclodextrin (HPβCD) was added to DI-water at a concentration of 20% w/v. The mixture was then vortexed and sonicated briefly to yield a colorless, transparent, slightly viscous liquid. Separately, a given quantity of pseudopterosin A (PsA) was then solubilized in 100% methanol to yield a yellow, transparent liquid. An aliquot of this solution was then added to a culture tube and dried under inert atmosphere yielding an off-white solid. The previously prepared hydroxypropyl-beta-cyclodextrin solution was then added and vortexed for 10 min. The mixture was orbitally shaken at 4 °C for at least 7 days prior to use to ensure equilibration of the cyclodextrin drug complex. […] Stability was conserved at least 14 days, as observed by HPLC and NMR.

[3] = test system: human adenosine A3 receptor; design: method as in doi:10.1016/j.tet.2009.09.021; details: DMSO formulation; high amount of non-specific binding; ref [4]; cited from earlier work
HUVEC cells [4] = test: WST-1 cell proliferation assay; type: cell-based, human
Method: Figure 4 PsA Potently Activates HUVEC Proliferation. […] Note saturation kinetics. Cytotoxicity is illustrated as a vertical dashed line at 1.5 × 10^−5 M in all vehicles tested. The percentage increase was calculated as [100 × (T/C)] where T/C is defined as […]. Data are presented as mean ± SEM (n = 16).
(§1) For each experiment cells were split at 80% confluence. All experiments were conducted between generations 4 and 10.
HUVEC were harvested from a T-75 plate by trypsinization and resuspended in EGM-2 complete culture media. Cells were plated at 500 cells per well of a 96-well plate and incubated overnight at 37 °C in a 5% CO2 atmosphere. EGM-2 complete culture media was removed and replaced with starvation media for 8 h. During this time, drug dilutions were prepared in growth factor depleted media. Starvation media was replaced with drug dilution in growth factor depleted media and incubated at 37 °C in a 5% CO2 atmosphere. After 41 h, 10 µL of WST-1 reagent was added to each well and incubated for 1 h. Plates were then read on a multiplate reader at 450 nm with background reference of 650 nm.

[5] = test system: PMA induced mouse ear edema; test: phorbol myristate acetate (PMA) induced mouse ear edema assay; type: in vivo; details: topical 50 µg/ear with PMA 2 µg/ear, 3 h 20 min; (1/SA) in milligrams of inhibited edema per mol of drug; n = 10
Method: The compounds were then assessed using the standard phorbol myristate acetate (PMA) induced mouse ear edema assay to determine their anti-inflammatory specific activity. In this assay, the specific activity of the drug, SA, is expressed as log(1/SA). For the mouse ear model, the molar concentration of the drug was calculated using Equation 2: SA = (mol of drug) (∆ in edema from control)^−1(2) where the difference in edema from control, ∆, refers to the difference in the average weight of the mouse ear between treated and untreated biopsies. The outcome, (1/SA), is expressed in units of milligrams of inhibited edema per mol of drug. […] Note Table 1.
Male Swiss Webster albino mice were briefly anesthetized with halothane. Compounds were topically applied to the inside pinnae of the ears of the mice in a solution containing the edema-causing irritant PMA. PMA alone (2 µg/ear) or in combination with the test compound (50 µg/ear) were dissolved in acetone and applied to the left ears (5 mice per treatment group, n = 10/compound), and acetone alone was applied to all right ears. After 3 h and 20 min incubation, the mice were euthanized, the ears removed and a 6 mm diameter biopsy was taken from the center of each ear and immediately weighed. Edema was measured by subtracting the weight of the right ear (acetone control) from the weight of the left ear (treated). Compounds that were not soluble in 100% acetone were dissolved in 20% ethanol: 80% acetone v/v. Results were recorded as % decrease (inhibition) in edema relative to the PMA control group edema.

[6] = test system: human adenosine A2A receptor; design: method as in doi:10.1016/j.tet.2009.09.021; details: DMSO formulation; high amount of non-specific binding; ref [4]; cited from earlier work
aqueous solubility = type: physicochemical; details: without DMSO, Cremophor or cyclodextrin
From the text: […] Reverse phase HPLC was utilized as described in Section 3.3 above to confirm the quantity of solubilized drug that remained unchanged between formulations.

HUVEC cells [7] = test: scratch migration assay; type: cell-based, human; details: 3.9 × 10^−8 M PsA in 0.05% HPβCD, depleted media, over 10 h; n = 16
Method: The in vitro scratch assay is commonly used to simulate cellular events that accompany the presence of a wound. Here, a thin scratch made in a cellular monolayer mimics the wound. The migration of cells in response to the scratch is then monitored using microscopic images at various time points to determine the rate of migration.
as §1
HUVEC were harvested from a T-75 plate by trypsinization and resuspended in EGM-2 complete culture media and were plated into T-25 cell culture flasks and allowed to grow to approx 90% confluence. EGM-2 complete culture media was then removed and replaced with starvation media for 8 h. A uniform scratch in the monolayer was then produced using a sterile pipette tip approximately 500 µm in width. Starvation media was replaced with 5 mL of either PsA in drug dosing media, or HPβCD in drug dosing media, or HPβCD in EGM-2 complete culture media. Microscopic images were taken at 400 times magnification every 5 min beginning at t = 0, and continuing until t = 10 h. Images were analyzed by determining the distance between cells on either side of scratch over time. Percent scratch closure was set to be a function of 1 − (average distance at each time point/average width of scratch).

HUVEC cells [8] = test system: HUVEC cells; design: method as in PMID 2875457, PMID 3574294, PMID 21556163; details: all formulation systems tested; ref [1],[22],[23]; cited from earlier work
[9] = log P by reverse phase HPLC; type: physicochemical; details: RP-HPLC retention time vs toluene and triphenylene; n = 4; read-out: Direct log P
From the text: Reverse phase HPLC (RP-HPLC) has been previously used to measure the logarithm of the octanol-water partition coefficient (log P) of many compounds [11]. To obtain the log P values recorded herein, the retention times of the compounds of interest (Table 1) along with the retention times of internal standards (toluene and triphenylene) were utilized. The resulting quantities were then substituted into Equation 1: [drawing 1] (1) where the abbreviation tol refers to toluene, triph to triphenylene, and t to the retention time. Details concerning how this equation was derived have been described by Donovan and Pescatore.
HPLC recordings were achieved using a Hewlett Packard HP/Agilent 1100 HPLC system connected to a 1 cm × 4.6 mm, 5 µm aPHera™ C18 Polymer HPLC column (catalog number 56130AST). Colorimetric assays were performed on a Molecular Devices Vmax microplate reader.

[10] = test system: human adenosine A1 receptor; design: method as in doi:10.1016/j.tet.2009.09.021; details: DMSO formulation; high amount of non-specific binding; ref [4]; cited from earlier work
[11] = test system: human adenosine A2B receptor; design: method as in doi:10.1016/j.tet.2009.09.021; details: DMSO formulation; high amount of non-specific binding; ref [4]; cited from earlier work
human neutrophils = test system: human neutrophils; design: method as in ref [3] = [3]; 3. Luedke E.S. The Identification and Characterization of Pseudopterosins: Anti-Inflammatory Agents Isolated from the Gorgonian Coral Pseudopterogorgia elisabethae Ph.D. Thesis University of Californi; details: in vitro; ref [3]; cited from earlier work
wound healing = test system: wound healing; design: method as in PMID 20363514; details: topical; ref [5]; cited from earlier work
early wound repair = test system: early wound repair; design: method as in ref [7] = [7]; 7. Vimrx Pharmaceuticals New Drug Application VM 301 for Use in Phase I/IIA Clinical Trials IND 60,606 12 7 2000; details: Phase II, double blind; ref [7]; cited from earlier work

SMILES: C[S+](C)[O-] [DMSO, Dimethylsulfoxide]
- LDH release (cytotoxicity) (HUVEC cells [1]): 18.4% ± 1.6%

SMILES: CC(C)=C[C@H]1C[C@H](C)[C@H]2CC[C@H](C)c3c(O[C@@H]4OC[C@@H](O)[C@H](O)[C@H]4O)c(O)c(C)c1c32 [Analog 4, Pseudopterosin A]
- stability conserved [2]: at least 14 days
- binding affinity [3]: micromolar
- increase in proliferation (HUVEC cells [4]; 1.0 × 10^−7 M PsA in HPβCD): 25%
- increase in potency of HPβCD formulation over DMSO formulation (HUVEC cells [4]; HUVEC proliferation): 200 fold
- increased HUVEC proliferation (HUVEC cells [4]; PsA in 0.016% Cremophor EL, 42 h): 15%
- increase in proliferation (HUVEC cells [4]; PsA in 0.02% DMSO, 42 h, compared to DMSO alone): 30% ± 4.8%
- Kd (HUVEC cells [4]; PsA in 0.05% HPβCD, from analysis of proliferation dose response): 14.5 nM
- concentration at which cytotoxicity occurred (HUVEC cells [4]; all formulations/vehicles tested in HUVEC cells): ≥ 15 µM
- log(1/SA) (anti-inflammatory specific activity) [5]: 8.08 ± 0.01 mg/mol
- binding affinity [6]: micromolar
- solubility in an aqueous medium (aqueous solubility): low solubility
- rate of HUVEC cell migration (HUVEC cells [7]): 9.98 ± 1.2 µm h^−1
- cytotoxic concentration (HUVEC cells [8]): > 10 µM
- chromatographic logP [9]: 4.42 ± 0.06
- binding affinity [10]: micromolar
- binding affinity [11]: micromolar
- effect on calcium ionophore induced degranulation and infiltration (human neutrophils): inhibited

SMILES: COc1c(C)c2c3c(c1O[C@@H]1OC[C@@H](O)[C@H](O)[C@H]1O)[C@@H](C)CC[C@@H]3[C@@H](C)C[C@@H]2C=C(C)C [Analog 3, PsA methyl ether]
- efficacy in wound healing (wound healing): topical efficacy
- effect on early wound repair above vehicle alone (early wound repair): increased angiogenesis, granulation, and re-epithelialization
- chromatographic logP [9]: 4.37 ± 0.02

SMILES: CC(C)=C[C@H]1C[C@H](C)[C@H]2CC[C@H](C)c3c(O[C@@H]4O[C@@H](C)[C@@H](O)[C@@H](O)[C@@H]4O)c(O)c(C)c1c32 [Analog 5, iso-PsE]
- log(1/SA) (anti-inflammatory specific activity) [5]: 8.02 ± 0.02 mg/mol
- chromatographic logP [9]: 4.59 ± 0.05

SMILES: CC(C)=CC1CC(C)C2CCC(C)C3=C2C1=C(C)C(=O)C31OC2OC(C)C(O)C(O)C2O1 (stereo not shown) [Analog 1, pseudopterosin keto ketal]
- log(1/SA) (anti-inflammatory specific activity) [5]: 7.63 ± 0.06 mg/mol
- chromatographic logP [9]: 3.95 ± 0.02

— article PMC3806459, “Cyclodextrin Formulation of the Marine Natural Product Pseudopterosin A Uncovers Optimal Pharmacodynamics in Proliferation Studies of Human Umbilical Vein Endothelial Cells” (Marine Drugs, 2013)
